In patent publication US20230118688A1, “1H-PYRAZOLO[4,3-d]PYRIMIDINE COMPOUNDS AS TOLL-LIKE RECEPTOR 7 (TLR7) AGONISTS” (BRISTOL-MYERS SQUIBB COMPANY, priority 2020, published 2023):

target: T1, human TLR7 (Homo sapiens, UniProt Q9NYK1); assay: Human TLR7 agonist activity reporter assay (HEK-Blue TLR7 cells, SEAP reporter); assay type: cell-based; conditions: 18 h treatment, average where assay repeated, Table A1, read-out: hTLR7 Agonism EC50
T1 construct: host or cells: HEK-Blue TLR7 cells (engineered human embryonic kidney cells)
T1 sequence (Q9NYK1 27-1049): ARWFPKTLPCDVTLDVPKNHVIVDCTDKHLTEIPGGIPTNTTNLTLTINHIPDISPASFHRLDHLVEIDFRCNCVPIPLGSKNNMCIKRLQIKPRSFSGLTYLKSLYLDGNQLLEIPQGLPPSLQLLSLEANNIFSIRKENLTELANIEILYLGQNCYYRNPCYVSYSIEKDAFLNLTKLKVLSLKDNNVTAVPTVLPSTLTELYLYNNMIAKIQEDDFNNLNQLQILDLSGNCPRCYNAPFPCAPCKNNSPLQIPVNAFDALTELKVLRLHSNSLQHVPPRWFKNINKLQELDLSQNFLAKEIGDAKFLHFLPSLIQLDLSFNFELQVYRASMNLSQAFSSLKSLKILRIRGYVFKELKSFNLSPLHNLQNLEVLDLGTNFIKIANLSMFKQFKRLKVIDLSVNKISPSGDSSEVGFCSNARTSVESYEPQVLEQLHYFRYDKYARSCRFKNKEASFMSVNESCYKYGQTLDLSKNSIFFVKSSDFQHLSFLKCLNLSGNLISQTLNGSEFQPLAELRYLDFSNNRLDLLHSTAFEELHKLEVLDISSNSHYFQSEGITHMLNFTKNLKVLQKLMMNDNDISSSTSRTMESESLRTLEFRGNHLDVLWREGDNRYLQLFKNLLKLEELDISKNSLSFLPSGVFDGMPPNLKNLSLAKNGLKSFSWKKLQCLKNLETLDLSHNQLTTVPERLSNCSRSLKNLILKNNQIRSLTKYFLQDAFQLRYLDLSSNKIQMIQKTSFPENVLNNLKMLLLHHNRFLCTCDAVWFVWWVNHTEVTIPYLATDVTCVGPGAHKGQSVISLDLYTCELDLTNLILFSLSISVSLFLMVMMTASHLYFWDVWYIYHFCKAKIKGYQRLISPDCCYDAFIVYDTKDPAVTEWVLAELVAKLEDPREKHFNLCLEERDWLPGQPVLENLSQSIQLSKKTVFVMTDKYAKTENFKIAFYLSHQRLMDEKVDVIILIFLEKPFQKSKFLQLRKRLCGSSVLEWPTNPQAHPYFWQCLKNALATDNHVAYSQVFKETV
Experimental: This procedure describes a method for assaying human TLR7 (hTLR7) agonist activity of the compounds disclosed in this specification.
HEK-Blue™ TLR7 cells were added to each well of a 384-well tissue-culture plate (15,000 cells per well) and incubated 16-18 h at 37° C., 5% CO2. Compounds (100 nl) were dispensed into wells containing the HEK-Blue™ TLR cells and the treated cells were incubated at 37° C., 5% CO2. After 18 h treatment ten microliters of freshly-prepared Quanti-Blue™ reagent (Invivogen) was added to each well, incubated for 30 min (37° C., 5% CO2) and SEAP levels measured using an Envision plate reader (OD=620 nm). The half maximal effective concentration values (EC50; compound concentration which induced a response halfway between the assay baseline and maximum) were calculated.

Row | EC50 [nM] | Structure (SMILES)
1 | 187 | CCCCNc1nc(N)nc2cnn(Cc3cc(CNC)ccc3OC)c12 [Compound 132, N7-butyl-1-(2-methoxy-5-((methylamino)methyl)benzyl)-1H-pyrazolo[4,3-d]pyrimidine-5,7-diamine]
2 | 479 | CCC[C@@H](CCO)Nc1nc(N)nc2cnn(Cc3cc(CN[C@@H]4CCOC[C@H]4O)ccc3OC)c12 [Compound 183, (3S,4R)-4-[({3-[(5-amino-7-{[(3S)-1-hydroxyhexan-3-yl]amino}-1H-pyrazolo[4,3-d]pyrimidin-1-yl)methyl]-4-methoxyphenyl}methyl)-amino]oxan-3-ol]
3 | 339 | CCC[C@@H](CCO)Nc1nc(N)nc2cnn(Cc3cc(CN[C@H]4COC[C@@H]4O)ccc3OC)c12 [Compound 184]
4 | 249 | CCCCNc1nc(N)nc2cnn(Cc3cc(CNC(C)(C)C)ccc3OC)c12 [Compound 112]
5 | 51.3 | CCCCNc1nc(N)nc2cnn(Cc3cc(CN4CCN(C)CC4)ccc3OC)c12 [Compound 109, N7-butyl-1-({2-methoxy-5-[(4-methylpiperazin-1-yl)methyl]phenyl}methyl)-1H-pyrazolo[4,3-d] pyrimidine-5,7-diamine]
6 | 493 | CCCCNc1nc(N)nc2cnn(Cc3cc(CN4CC5CCS(=O)(=O)C5C4)ccc3OC)c12 (stereo not drawn) [Compound 113, 5-[(3-{[5-amino-7-(butyl-amino)-1H-pyrazolo[4,3-d]pyrimidin-1-yl]methyl}-4-methoxyphenyl)methyl]-hexahydro-2H-1λ6-thieno-[2,3-c]pyrrole-1,1-dione]
7 | 193 | CCCCNc1nc(N)nc2cnn(Cc3cc(CN4CCC5CCC(C5)C4)ccc3OC)c12 (stereo not drawn) [Compound 103, 1-{[5-({3-azabicyclo-[4.2.1]nonan-3-yl}methyl)-2-methoxyphenyl]methyl}-N7-butyl-1H-pyrazolo[4,3-d]pyrimidine-5,7-diamine]
8 | 172 | CCCCNc1nc(N)nc2cnn(Cc3cc(CN4CCC4)ccc3OC)c12 [Compound 115, 1-({5-[(azetidin-1-yl)methyl]-2-methoxyphenyl}-methyl)-N7-butyl-1H-pyrazolo[4,3-d]pyrimidine-5,7-diamine]
9 | 352 | CCCCNc1nc(N)nc2cnn(Cc3cc(CNC4CCOCC4)ccc3OC)c12 [Compound 101, N7-butyl-1-[(2-methoxy-5-{[(oxan-4-yl)amino]-methyl}phenyl)methyl]-1H-pyrazolo[4,3-d]pyrimidine-5,7-diamine]
10 | 658 | CCCCNc1nc(N)nc2cnn(Cc3cc(CN4CCC5CCC(C5)C4)ccc3OC)c12 (stereo not drawn) [Compound 102, 1-{[5-({3-azabicyclo-[4.2.1]nonan-3-yl}methyl)-2-methoxyphenyl]methyl}-N7-butyl-1H-pyrazolo[4,3-d]pyrimidine-5,7-diamine]
11 | 630 | CCCCNc1nc(N)nc2cnn(Cc3cc(CN4CC5CCCC(C5)C4)ccc3OC)c12 [Compound 104, 1-{[5-({3-azabicyclo-[3.3.1]nonan-3-yl}methyl)-2-methoxyphenyl]methyl}-N7-butyl-1H-pyrazolo[4,3-d]pyrimidine-5,7-diamine]
12 | 308 | CCC[C@@H](CCO)Nc1nc(N)nc2cnn(Cc3cc(CN[C@@H]4COC[C@H]4O)ccc3OC)c12 [Compound 181, (3S,4R)-4-[({3-[(5-amino-7-{[(3S)-1-hydroxyhexan-3-yl]amino}-1H-pyrazolo[4,3-d]pyrimidin-1-yl)methyl]-4-methoxyphenyl}methyl)-amino]oxolan-3-ol]
13 | 146 | CCCCNc1nc(N)nc2cnn(Cc3cc(CN4CC(O)C4)ccc3OC)c12 [Compound 108, 1-[(3-{[5-amino-7-(butyl-amino)-1H-pyrazolo[4,3-d]pyrimidin-1-yl]methyl}-4-methoxyphenyl)me-thyl]azetidin-3-ol]
14 | 213 | CCC[C@@H](CCO)Nc1nc(N)nc2cnn(Cc3cc(CN[C@@H]4COCC[C@H]4O)ccc3OC)c12 [Compound 180, (3R,4R)-3-[({3-[(5-amino-7-{[(3S)-1-hydroxyhexan-3-yl]amino}-1H-pyrazolo[4,3-d]pyrimidin-1-yl)methyl]-4-methoxyphenyl}methyl)-amino]oxan-4-ol]
15 | 502 | CCCCNc1nc(N)nc2cnn(Cc3cc(CN4CC5CCCCCC54)ccc3OC)c12 (stereo not drawn) [Compound 106, 1-{[5-({8-azabicyclo-[5.2.0]nonan-8-yl}methyl)-2-methoxyphenyl]methyl}-N7-butyl-1H-pyrazolo[4,3-d]pyrimidine-5,7-diamine]
16 | 358 | CCCCNc1nc(N)nc2cnn(Cc3cc(CNC4CC5(CC5)C4)ccc3OC)c12 [Compound 111, N7-butyl-1-({2-methoxy-5-[({spiro[2.3]hexan-5-yl}amino)methyl]phenyl}methyl)-1H-pyrazolo[4,3-d]pyrimidine-5,7-diamine]
17 | 197 | CCC[C@@H](CCO)Nc1nc(N)nc2cnn(Cc3cc(CN[C@H]4COCC[C@@H]4O)ccc3OC)c12 [Compound 182, (3S,4S)-3-[({3-[(5-amino-7-{[(3S)-1-hydroxyhexan-3-yl]amino}-1H-pyrazolo[4,3-d]pyrimidin-1-yl)methyl]-4-methoxyphenyl}methyl)-amino]oxan-4-ol]
18 | 405 | CCC[C@@H](CCO)Nc1nc(N)nc2cnn(Cc3cc(CN[C@H]4CCOC[C@H]4O)ccc3OC)c12 [Compound 179, (3S,4S)-4-[({3-[(5-amino-7-{[(3S)-1-hydroxyhexan-3-yl]amino}-1H-pyrazolo[4,3-d]pyrimidin-1-yl)methyl]-4-methoxyphenyl}methyl)-amino]oxan-3-ol]
19 | 447 | CCCCNc1nc(N)nc2cnn(Cc3cc(CNC45CC(C4)C5)ccc3OC)c12 [Compound 110, 1-({5-[({bicyclo[1.1.1]-pentan-1-yl}amino)methyl]-2-methoxyphenyl}-methyl)-N7-butyl-1H-pyrazolo[4,3-d]pyrimidine-5,7-diamine]
20 | 750 | CCCCNc1nc(N)nc2cnn(Cc3cc(CN4CC5CCCC(C4)C5O)ccc3OC)c12 (stereo not drawn) [Compound 107, 3-[(3-{[5-amino-7-(butyl-amino)-1H-pyrazolo[4,3-d]pyrimidin-1-yl]methyl}-4-methoxyphenyl)methyl]-3-aza bicyclo[3.3.1]nonan-9-ol]

tested on: CD69; assay: Induction of CD69 in human whole blood; assay type: cell-based; conditions: 17 h, CD69 surface staining, 100% set to 1 uM resiquimod, average where assay repeated, Table A1, read-out: hWB CD69 EC50
Experimental: The induction of Type I interferon (IFN) MX-1 genes and the B-cell activation marker CD69 are downstream events that occur upon activation of the TLR7 pathway. The following is a human whole blood assay that measures their induction in response to a TLR7 agonist.
Heparinized human whole blood was harvested from human subjects and treated with test TLR7 agonist compounds at 1 mM. The blood was diluted with RPMI 1640 media and Echo was used to predot 10 nL per well giving a final concentration of 1 uM (10 nL in 10 uL of blood). After mixing on a shaker for 30 sec, the plates were covered and placed in a 37° C. chamber for o/n=17 hrs. Fixing/lysis buffer was prepared (5×->1× in H2O, warm at 37° C.; Cat #BD 558049) and kept the perm buffer (on ice) for later use.
For surface markers staining (CD69): prepared surface Abs: 0.045 ul hCD14-FITC (ThermoFisher Cat #MHCD1401)+0.6 ul hCD19-ef450 (ThermoFisher Cat #48-0198-42)+1.5 ul hCD69-PE (cat #BD555531)+0.855 ul FACS buffer. Added 3 ul/well, spin1000 rpm for 1 min and mixed on shaker for 30 sec, put on ice for 30 mins. Stop stimulation after 30 minutes with 70 uL of prewarmed 1× fix/lysis buffer and use Feliex mate to resuspend (15 times, change tips for each plate) and incubate at 37C for 10 minutes.
Centrifuge at 2000 rpm for 5 minutes aspirate with HCS plate washer, mix on shaker for 30 sec and then wash with 70 uL in dPBS and pelleted 2×s (2000 rpm for 5 min) and 50 ul wash in FACS buffer pelleted 1×s(2000 rpm for 5 min). Mix on shaker for 30 sec. For Intracellular markers staining (MX-1): Add 50 ul of BD Perm buffer III and mix on shaker for 30 sec. Incubate on ice for 30 minutes (in the dark). Wash with 50 uL of FACS buffer 2× (spin @2300 rpm×5 min after perm) followed by mixing on shaker for 30 sec. Resuspended in 20 ul of FACS buffer containing MX1 antibody ( ) (4812)-Alexa 647: Novus Biologicals #NBP2-43704AF647) 20 ul FACS bf+0.8 ul hlgG+0.04 ul MX-1. Spin 1000 rpm for 1 min, mix on shaker for 30se and the samples were incubated at RT in the dark for 45 minutes followed by washing 2×FACS buffer (spin @2300 rpm×5 min after perm). Resuspend 20 ul (35 uL total per well) of FACS buffer and cover with foil and place in 4° C. to read the following day. Plates were read on iQuePlus. The results were loaded into toolset and IC50 curves are generated in curve master. The y-axis 100% is set to 1 uM of resiquimod.

Row | EC50 [nM] | Structure (SMILES)
21 | 10.9 | CCCCNc1nc(N)nc2cnn(Cc3cc(CNC)ccc3OC)c12 [Compound 132, N7-butyl-1-(2-methoxy-5-((methylamino)methyl)benzyl)-1H-pyrazolo[4,3-d]pyrimidine-5,7-diamine]
